Experimental data published in US6537974B2, “Method of treating arrhythmias” (CV Therapeutics, Inc., priority 2000, dated 2003).

Experiments:
AV node (AH interval) = test: Electrophysiology study: single intravenous bolus of CVT-510, effect on AH interval, heart rate, blood pressure; type: in vivo, human
Method: (§1) The effect of CVT-510 on prolongation of AH interval, a measure of an adenosine A1 mediated effect of CVT-510, and on the heart rate (sinus rate) of patients with PSVT was tested in patients undergoing a clinically indicated electrophysiology study. In the first study patients volunteers were administered a single bolus of. CVT-510. In the second study PSVT was induced in patients prior to the administration of CVT-510.
All antiarrhythmic agents, including digoxin, beta-blockers and calcium-channel blockers were discontinued for five half-lives prior to the study.
Patients were excluded from the study if the PR interval was >200 ms or resting heart rate was <60 or >100/min. Other exclusion criteria included evidence of ventricular preexcitation, Class II-IV congestive heart failure or asthma. Patients were also required to have normal baseline electrophysiologic parameters, including a paced AV nodal Wenckebach cycle length 500 ms, an AH interval between 60 and 125 ms and an HV interval 35-55 ms. All patients were 18 years of age.
Quadripolar catheters were introduced percutaneously and advanced under fluoroscopic guidance to the high right atrium and across the tricuspid annulus to record the His bundle potential. […] Data were stored on optical disk. All patients had continuous ECG and non-invasive blood pressure monitoring throughout the study.
Cardiac stimulation was performed with a programmable stimulator with an isolated constant-current source. Stimuli were delivered as rectangular pulses of 2 ms duration at four times diastolic threshold. The study design was open-label with dose escalation, with the latter determined by tolerability. A single intravenous bolus of CVT-510 was administered to each patient after baseline electrophysiologic measurements were made.
After a bolus dose of CVT-510 was given, blood pressure, heart rate, 12-lead ECG and AH and HV intervals were recorded at 1, 5, 10, 15, 20 and 30 min and then every 15 min for up to 1 hour post-bolus or until the parameters returned to baseline. The AH and HV intervals were determined by measuring the last interval during a 15 beat drive at a paced cycle length of 600, 500 and 400 ms (unless precluded by pacing-induced AV nodal Wenckebach).
Administration of CVT-510 started at a dose of 0.3 μg/kg. Dose escalation proceeded with additional groups of patients receiving doses of 1, 3, 7.5, 10, 15 and 30 μg/kg based on tolerability and the absence of AV nodal Wenckebach or 3° AV block during sinus rhythm.
Data are expressed as mean ±SD. Based on the results of the normality test, a paired t-test or a non-parametric signed-rank test (SR) was used to determine the significance of CVT-510's effects on heart rate, blood pressure, ECG and AV nodal conduction times (AH and HV) for each dosing group (e.g., 0.3, 1.0, 3.0, 7.5, 10.0, 15.0 and 30.0 μg/kg). Similarly, analysis of variance (ANOVA) or the Kruskal-Wallis test (KW) was used to compare the AH intervals during sinus rhythm and atrial pacing at all doses. No adjustment for multiple comparisons were made, and a P value <0.05 were used to determine the significance of the differences between mean values.

patients with PSVT = test: Treatment of patients with induced PSVT with CVT-510 boluses: conversion to sinus rhythm; type: in vivo, human; conditions: for % conversion after Bolus 1 / % conversion after Bolus 2 / % cumulative conversion: patients with PSVT
Method: as §1

A1 adenosine receptor = biological target: T1, A1 adenosine receptor (Homo sapiens, UniProt P30542); test: Specificity for the A1 adenosine receptor: CPX antagonism, left ventricular pressure
T1 sequence (P30542 1-326): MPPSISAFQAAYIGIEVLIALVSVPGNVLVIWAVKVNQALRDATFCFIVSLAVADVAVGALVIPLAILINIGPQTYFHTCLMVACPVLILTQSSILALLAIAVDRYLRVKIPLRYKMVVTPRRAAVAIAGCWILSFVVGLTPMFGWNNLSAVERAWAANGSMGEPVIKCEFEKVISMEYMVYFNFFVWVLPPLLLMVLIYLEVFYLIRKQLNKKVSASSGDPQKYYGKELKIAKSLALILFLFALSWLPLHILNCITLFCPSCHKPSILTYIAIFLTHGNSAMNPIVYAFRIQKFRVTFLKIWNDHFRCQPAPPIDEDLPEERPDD

[1] = in vivo; cited from earlier work

SMILES: OC[C@H]1O[C@@H](n2cnc3c(N[C@@H]4CCOC4)ncnc32)[C@H](O)[C@@H]1O [CVT-510, 6-(3-(R)-aminotetrahydrofuranyl)purine riboside]
- effect on AV nodal conduction (AV node (AH interval); bolus doses 0.3-30 μg/kg, patients): slows AV nodal conduction in a dose-dependent manner
- time of maximal effect on the AH interval after dosing (AV node (AH interval); dose of 7.5 μg/kg, human patients): one
- half-life compared with adenosine (AV node (AH interval); in vivo): relatively long
- effect on sinus rate (AV node (AH interval); patients): no effect
- effect on systemic blood pressure (AV node (AH interval); patients): no effect
- onset of action (AV node (AH interval); post-administration): ≤ 1 min
- time by which effects were mostly eliminated (AV node (AH interval); post-administration): ≤ 20 min
- % conversion after Bolus 1 (patients with PSVT; Dose Level 3 (n = 4)): 75%
- % conversion after Bolus 2 (patients with PSVT; Dose Level 3 (n = 4)): 25%
- % cumulative conversion (patients with PSVT; Dose Level 3 (n = 4)): 100%
- % conversion after Bolus 1 (patients with PSVT; Dose Level 5 (n = 9)): 78%
- % conversion after Bolus 2 (patients with PSVT; Dose Level 5 (n = 9)): 0%
- % cumulative conversion (patients with PSVT; Dose Level 5 (n = 9)): 78%
- % conversion after Bolus 1 (patients with PSVT; Dose Level 7.5 (n = 4)): 100%
- % conversion after Bolus 2 (patients with PSVT; Dose Level 7.5 (n = 4)): 0%
- % cumulative conversion (patients with PSVT; Dose Level 7.5 (n = 4)): 100%
- % conversion after Bolus 1 (patients with PSVT; Dose Level 10 (n = 5)): 90%
- % conversion after Bolus 2 (patients with PSVT; Dose Level 10 (n = 5)): 0%
- % cumulative conversion (patients with PSVT; Dose Level 10 (n = 5)): 90%
- % conversion after Bolus 1 (patients with PSVT; Dose Level 12.5 (n = 4)): 75%
- % conversion after Bolus 2 (patients with PSVT; Dose Level 12.5 (n = 4)): 25%
- % cumulative conversion (patients with PSVT; Dose Level 12.5 (n = 4)): 100%
- % conversion after Bolus 1 (patients with PSVT; Dose Level 15 (n = 10)): 80%
- % conversion after Bolus 2 (patients with PSVT; Dose Level 15 (n = 10)): 10%
- % cumulative conversion (patients with PSVT; Dose Level 15 (n = 10)): 90%
- HV prolongation (patients with PSVT; at low concentrations): without causing
- depressing sinus or AV nodal conduction after restoring SR (patients with PSVT; at low concentrations): without causing
- hypotension (patients with PSVT; at low concentrations): without causing
- termination of PSVT (patients with PSVT; at low concentrations): rapidly terminates PSVT
- effect on dpdt^−1 max (A1 adenosine receptor): no effect
- effect on left ventricular pressure (A1 adenosine receptor): no effect
- effects on the AV node in the presence of the selective A1 receptor antagonist CPX (A1 adenosine receptor; with CPX, effects on coronary conductance not abolished): completely abolished

SMILES: C[C@H]1O[C@@H](O[C@H]2[C@@H](O)C[C@H](O[C@H]3[C@@H](O)C[C@H](O[C@H]4CC[C@@]5(C)[C@H](CC[C@@H]6[C@@H]5C[C@@H](O)[C@]5(C)[C@@H](C7=CC(=O)OC7)CC[C@]65O)C4)O[C@@H]3C)O[C@@H]2C)C[C@H](O)[C@@H]1O [Digoxin]
- delayed onset of action [1]: about 30 min
- time to peak effects after administration [1]: 3 to 4 h
